Laboratory results: the NIST ThermoML archive (doi:10.1021/je300590v)
± gives the expanded uncertainty stated by the source.

Test: xn = mol fraction of the nth substance listed
Conditions: Vibrating tube method

Structure (SMILES): N#N [nitrogen] + O=C=O
- mass density (273.15 K, 1001 kPa, Gas, x2 = 0.8785): 22.5 ± 0.2 kg/m3
- mass density (273.15 K, 1001 kPa, Gas, x2 = 0.9873): 21.9 ± 0.2 kg/m3
- mass density (273.15 K, 2000 kPa, Gas, x2 = 0.8785): 43.7 ± 0.2 kg/m3
- mass density (273.15 K, 2001 kPa, Gas, x2 = 0.9873): 46 ± 0.2 kg/m3
- mass density (273.15 K, 3001 kPa, Gas, x2 = 0.8785): 69.6 ± 0.2 kg/m3
- mass density (273.15 K, 3001 kPa, Gas, x2 = 0.9873): 76.9 ± 0.2 kg/m3
- mass density (273.15 K, 3480 kPa, Gas, x2 = 0.9873): 98 ± 0.3 kg/m3
- mass density (273.15 K, 3902 kPa, Liquid, x2 = 0.9873): 911.4 ± 0.9 kg/m3
- mass density (273.15 K, 4000 kPa, Liquid, x2 = 0.9873): 911.6 ± 0.9 kg/m3
- mass density (273.15 K, 4001 kPa, Gas, x2 = 0.8785): 104 ± 0.3 kg/m3
- mass density (273.15 K, 4100 kPa, Gas, x2 = 0.8785): 108.6 ± 0.3 kg/m3
- mass density (273.15 K, 5001 kPa, Liquid, x2 = 0.9873): 922.2 ± 1 kg/m3
- mass density (273.15 K, 6000 kPa, Liquid, x2 = 0.9873): 930.9 ± 0.9 kg/m3
- mass density (273.15 K, 7000 kPa, Liquid, x2 = 0.9873): 938.7 ± 1.1 kg/m3
- mass density (273.15 K, 8001 kPa, Liquid, x2 = 0.9873): 946 ± 1 kg/m3
- mass density (273.15 K, 8401 kPa, Liquid, x2 = 0.8785): 805 ± 1.3 kg/m3
- mass density (273.15 K, 9000 kPa, Liquid, x2 = 0.9873): 952.8 ± 1 kg/m3
- mass density (273.15 K, 9001 kPa, Liquid, x2 = 0.8785): 811.5 ± 1.3 kg/m3
- mass density (273.15 K, 10000 kPa, Liquid, x2 = 0.9873): 959.2 ± 1 kg/m3
- mass density (273.15 K, 10001 kPa, Liquid, x2 = 0.8785): 824 ± 1.2 kg/m3
- mass density (273.15 K, 11001 kPa, Liquid, x2 = 0.9873): 965.2 ± 0.9 kg/m3
- mass density (273.15 K, 11003 kPa, Liquid, x2 = 0.8785): 836 ± 1.1 kg/m3
- mass density (273.15 K, 12000 kPa, Liquid, x2 = 0.8785): 847 ± 1.1 kg/m3
- mass density (273.15 K, 12000 kPa, Liquid, x2 = 0.9873): 970.8 ± 0.9 kg/m3
- mass density (273.15 K, 13001 kPa, Liquid, x2 = 0.8785): 856.6 ± 1 kg/m3
- mass density (273.15 K, 13002 kPa, Liquid, x2 = 0.9873): 976.3 ± 0.9 kg/m3
- mass density (273.15 K, 14000 kPa, Liquid, x2 = 0.8785): 865.1 ± 1 kg/m3
- mass density (273.15 K, 14001 kPa, Liquid, x2 = 0.9873): 981.5 ± 0.9 kg/m3
- mass density (273.15 K, 15001 kPa, Liquid, x2 = 0.9873): 986.6 ± 0.9 kg/m3
- mass density (273.15 K, 15002 kPa, Liquid, x2 = 0.8785): 873.4 ± 0.9 kg/m3
- mass density (273.15 K, 16000 kPa, Liquid, x2 = 0.9873): 991.4 ± 0.9 kg/m3
- mass density (273.15 K, 16001 kPa, Liquid, x2 = 0.8785): 880.8 ± 0.9 kg/m3
- mass density (273.15 K, 17000 kPa, Liquid, x2 = 0.8785): 887.8 ± 0.9 kg/m3
- mass density (273.15 K, 17002 kPa, Liquid, x2 = 0.9873): 996.1 ± 0.9 kg/m3
- mass density (273.15 K, 18000 kPa, Liquid, x2 = 0.8785): 894.6 ± 0.9 kg/m3
- mass density (273.15 K, 18012 kPa, Liquid, x2 = 0.9873): 1000.6 ± 0.8 kg/m3
- mass density (273.15 K, 19001 kPa, Liquid, x2 = 0.8785): 900.7 ± 0.9 kg/m3
- mass density (273.15 K, 19011 kPa, Liquid, x2 = 0.9873): 1004.8 ± 0.8 kg/m3
- mass density (273.15 K, 20000 kPa, Liquid, x2 = 0.8785): 906.6 ± 0.9 kg/m3
- mass density (273.15 K, 20001 kPa, Liquid, x2 = 0.9873): 1008.7 ± 0.8 kg/m3
- mass density (283.15 K, 1000 kPa, Gas, x2 = 0.9873): 20.1 ± 0.2 kg/m3
- mass density (283.15 K, 1004 kPa, Gas, x2 = 0.8785): 19.4 ± 0.2 kg/m3
- mass density (283.15 K, 2000 kPa, Gas, x2 = 0.9873): 42.5 ± 0.2 kg/m3
- mass density (283.15 K, 2001 kPa, Gas, x2 = 0.8785): 40.3 ± 0.2 kg/m3
- mass density (283.15 K, 3000 kPa, Gas, x2 = 0.8785): 64.6 ± 0.2 kg/m3
- mass density (283.15 K, 3000 kPa, Gas, x2 = 0.9873): 69.8 ± 0.2 kg/m3
- mass density (283.15 K, 4000 kPa, Gas, x2 = 0.9873): 106.2 ± 0.3 kg/m3
- mass density (283.15 K, 4001 kPa, Gas, x2 = 0.8785): 93.7 ± 0.3 kg/m3
- mass density (283.15 K, 4500 kPa, Gas, x2 = 0.9873): 131.6 ± 0.3 kg/m3
- mass density (283.15 K, 5001 kPa, Gas, x2 = 0.8785): 131.6 ± 0.3 kg/m3
- mass density (283.15 K, 5101 kPa, Liquid, x2 = 0.9873): 841.4 ± 1.1 kg/m3
- mass density (283.15 K, 5600 kPa, Gas, x2 = 0.8785): 170.5 ± 0.3 kg/m3
- mass density (283.15 K, 6001 kPa, Liquid, x2 = 0.9873): 857.5 ± 1.1 kg/m3
- mass density (283.15 K, 7000 kPa, Liquid, x2 = 0.9873): 870.7 ± 1 kg/m3
- mass density (283.15 K, 8000 kPa, Liquid, x2 = 0.9873): 882.2 ± 1.2 kg/m3
- mass density (283.15 K, 9001 kPa, Liquid, x2 = 0.8785): 708.8 ± 1.9 kg/m3
- mass density (283.15 K, 9001 kPa, Liquid, x2 = 0.9873): 892.5 ± 1.1 kg/m3
- mass density (283.15 K, 10001 kPa, Liquid, x2 = 0.9873): 901.7 ± 1.1 kg/m3
- mass density (283.15 K, 10002 kPa, Liquid, x2 = 0.8785): 736.1 ± 1.5 kg/m3
- mass density (283.15 K, 11001 kPa, Liquid, x2 = 0.8785): 757.6 ± 1.3 kg/m3
